Reference: patent publication US11542492B2 (Celgene CAR LLC, priority 2009, dated 2023)

Biological target: T1, PDPK1 (Homo sapiens, UniProt O15530)
T1 sequence (O15530 1-556): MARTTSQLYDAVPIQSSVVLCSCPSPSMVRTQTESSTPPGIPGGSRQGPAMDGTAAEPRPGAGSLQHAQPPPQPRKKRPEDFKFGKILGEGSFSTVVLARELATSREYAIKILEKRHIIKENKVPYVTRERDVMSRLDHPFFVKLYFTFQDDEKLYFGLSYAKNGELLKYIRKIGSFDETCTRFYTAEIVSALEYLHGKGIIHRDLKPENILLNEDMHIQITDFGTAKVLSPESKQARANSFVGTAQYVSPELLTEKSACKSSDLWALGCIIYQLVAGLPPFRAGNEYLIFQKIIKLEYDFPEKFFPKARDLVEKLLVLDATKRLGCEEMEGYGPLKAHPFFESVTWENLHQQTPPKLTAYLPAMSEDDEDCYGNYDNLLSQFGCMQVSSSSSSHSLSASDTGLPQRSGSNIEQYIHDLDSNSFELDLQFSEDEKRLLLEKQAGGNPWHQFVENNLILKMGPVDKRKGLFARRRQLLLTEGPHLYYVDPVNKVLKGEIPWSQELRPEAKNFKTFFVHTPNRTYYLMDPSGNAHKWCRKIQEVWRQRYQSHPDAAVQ
Assay: PDK1-OMNIA kinase assay (ST28-Sox peptide)
Format: biochemical
Set-up: purchased Invitrogen, BPS or SignalChem P3001 (Invitrogen), 40080 (BPS), P14-10H (SignalChem)
Settings: PDPK1 enzyme pre-incubated 30 min at 25° C. with compound; [ATP]=5 μM; ST28-Sox peptide substrate; read-out: Inhibition/Modification Designation (IC50, PDK1-OMNIA)
Protocol: Briefly, a 10× stock of PDPK1 enzyme from Invitrogen (P3001) or BPS (40080) or SignalChem (P14-10H), 1.13×ATP (AS001A) and ST28-Sox peptide substrate (KNZ1281C) were prepared in 1× kinase reaction buffer consisting of 20 mM Tris, pH 7.5, 5 mM MgCl2, 1 mM EGTA, 5 mM β-glycerophosphate, 5% glycerol (10× stock, KB002A) and 0.2 mM DTT (DS001A). 5 μL of enzyme were pre-incubated in a Corning (#3574) 384-well, white, non-binding surface microtiter plate (Corning, N.Y.) for 30 min at 25° C. with a 0.5 μL volume of 50% DMSO and serially diluted compounds prepared in 50% DMSO. Kinase reactions were started with the addition of 45 […] of the ST28-Sox peptide substrate and monitored every 71 seconds for 30-60 minutes at λex360/λem485 in a Synergy4 plate reader from BioTek (Winooski, Vt.). At the conclusion of each assay, progress curves from each well were examined for linear reaction kinetics and fit statistics (R^2, 95% confidence interval, absolute sum of squares). Post-lag velocity (+10 minutes to 20+ minutes) from each reaction was estimated from the slope of a plot of relative fluorescence units vs time (minutes) and normalized to the no enzyme and no inhibitor control groups for % Inhibition. The resulting inhibition values were then plotted against inhibitor concentration to estimate IC50 from log [Inhibitor] vs Response, Variable Slope model in GraphPad Prism from GraphPad Software (San Diego, Calif.).
[Reagent] used in provisional protocol(s): Invitrogen—[PDPK1]=5-10 nM, [ATP]=5 μM and [ST28-Sox]=5 μM or 10 μM (ATP KMapp=4-6 μM); BPS—[PDPK1]=10-15 nM, [ATP]=5 μM and [ST28-Sox]=10 μM (ATP KMapp=3-5 μM); SignalChem—[PDPK1]=5-10 nM, [ATP]=5 μM and [ST28-Sox]=5 μM or 10 μM (ATP KMapp ND)

SMILES | IC50 [µM]
CC(C)(C(N)=O)C(=O)NCCCNc1nc(Nc2cccc(NC(=O)CC(NC(=O)CCCC(=O)NCCCOCCOCCOCCCNC(=O)CCCC[C@@H]3SC[C@@H]4NC(=O)N[C@@H]43)C(=O)N3C[C@H]4C[C@@H]3C(=O)O4)c2)ncc1Br (stereo partly drawn) [XI-56] | 0.1 to 1
CC(C)(C(N)=O)C(=O)NCCCNc1nc(Nc2ccc(CCC(=O)N3C[C@@H]4C[C@H]3C(=O)O4)cc2)ncc1Br [XI-41] | < 0.01
CC(C)(C(N)=O)C(=O)NCCCNc1nc(Nc2cccc(N3C(=O)CCC3=O)c2)ncc1Br [XI-46] | 0.01 to 0.1
CC(C)(C(N)=O)C(=O)NCCCNc1nc(Nc2cccc(NC(=O)CCC(=O)N3C[C@@H]4CC3C(=O)O4)c2)ncc1Br [XI-48] | < 0.01
CC(C)(C(N)=O)C(=O)NCCCNc1nc(Nc2cccc(CCC(=O)N3C[C@H]4C[C@@H]3C(=O)O4)c2)ncc1Br [XI-45] | 0.01 to 0.1
CC(C)(C(N)=O)C(=O)NCCCNc1nc(Nc2ccc(NC(=O)[C@H]3CCC(=O)O3)cc2)ncc1Br [XI-42] | 0.01 to 0.1
CC(C)(C(N)=O)C(=O)NCCCNc1nc(Nc2cccc(CCC(=O)N3C[C@@H]4C[C@H]3C(=O)O4)c2)ncc1Br [XI-44] | 0.01 to 0.1
CC(C)(C(N)=O)C(=O)NCCCNc1nc(Nc2cccc(NC(=O)CNC(=O)C3CCSC3=O)c2)ncc1Br (stereo not drawn) [XI-24] | 0.01 to 0.1
CC(C)(C(N)=O)C(=O)NCCCNc1nc(Nc2cccc(NC(=O)[C@@H]3CCC(=O)O3)c2)ncc1Br [XI-52] | 0.01 to 0.1

The next lines start with the values.

IC50 [µM] | SMILES
0.01 to 0.1 | CC(C)(C(N)=O)C(=O)NCCCNc1nc(Nc2cccc(NC(=O)C3CC(=O)CC(=O)C3)c2)ncc1Br [XI-29]
0.1 to 1 | CC(C)(C(N)=O)C(=O)NCCCNc1nc(Nc2ccc(NC(=O)[C@@H]3CCC(=O)O3)cc2)ncc1Br [XI-43]
< 0.01 | CC(C)(C(N)=O)C(=O)NCCCNc1nc(Nc2cccc(NC(=O)CCC(=O)N3CCC3=O)c2)ncc1Br [XI-55]
0.1 to 1 | CC1(C)OC2C(=O)CC(C(=O)NCC(=O)Nc3cccc(Nc4ncc(Br)c(NCCCNC(=O)C(C)(C)C(N)=O)n4)c3)C2O1 (stereo not drawn) [XI-32]
0.01 to 0.1 | CC(C)(C(N)=O)C(=O)NCCCNc1nc(Nc2cccc(NC(=O)c3ccc4c(c3)CCC(=O)O4)c2)ncc1Br [XI-36]
0.01 to 0.1 | CC(C)(C(N)=O)C(=O)NCCCNc1nc(Nc2cccc(NC(=O)CC(N)C(=O)N3C[C@H]4C[C@@H]3C(=O)O4)c2)ncc1Br (stereo partly drawn) [XI-33]
0.01 to 0.1 | CC(C)(C(N)=O)C(=O)NCCCNc1nc(Nc2cccc(NC(=O)[C@H]3CCC(=O)O3)c2)ncc1Br [XI-50]
< 0.01 | CC(C)(C(N)=O)C(=O)NCCCNc1nc(Nc2ccc(CCC(=O)N3C[C@H]4C[C@@H]3C(=O)O4)cc2)ncc1Br [XI-40]
< 0.01 | CC(C)(C(N)=O)C(=O)NCCCNc1nc(Nc2cccc(NC(=O)CCC(=O)Oc3ccccc3)c2)ncc1Br [XI-25]
0.01 to 0.1 | CC(C)(C(N)=O)C(=O)NCCCNc1nc(Nc2cccc(NC(=O)C3CCSC3=O)c2)ncc1Br (stereo not drawn) [XI-23]
0.01 to 0.1 | CC(C)(C(N)=O)C(=O)NCCCNc1nc(Nc2cccc(NC(=O)CNC(=O)[C@@H]3CCC(=O)O3)c2)ncc1Br [XI-37]
0.01 to 0.1 | CC(C)(C(N)=O)C(=O)NCCCNc1nc(Nc2cccc(NC(=O)CCC(=O)NC3CCSC3=O)c2)ncc1Br (stereo not drawn) [XI-34]
0.01 to 0.1 | C=CC(=O)NCC(=O)Nc1cccc(Nc2ncc(Br)c(NCCCNC(=O)C(C)(C)C(N)=O)n2)c1 [XI-31]
< 0.01 | CON1C[C@H](NC(=O)CCC(=O)Nc2cccc(Nc3ncc(Br)c(NCCCNC(=O)C(C)(C)C(N)=O)n3)c2)C1=O [XI-47]
0.01 to 0.1 | COC1=CC(=O)CC(C(=O)Nc2cccc(Nc3ncc(Br)c(NCCCNC(=O)C(C)(C)C(N)=O)n3)c2)C1 (stereo not drawn) [XI-30]

Biological target: T2, p120γ (PI3Kγ) (Homo sapiens, UniProt P48736)
T2 construct: purchased BPS Bioscience 40625
T2 sequence (P48736 whole entry): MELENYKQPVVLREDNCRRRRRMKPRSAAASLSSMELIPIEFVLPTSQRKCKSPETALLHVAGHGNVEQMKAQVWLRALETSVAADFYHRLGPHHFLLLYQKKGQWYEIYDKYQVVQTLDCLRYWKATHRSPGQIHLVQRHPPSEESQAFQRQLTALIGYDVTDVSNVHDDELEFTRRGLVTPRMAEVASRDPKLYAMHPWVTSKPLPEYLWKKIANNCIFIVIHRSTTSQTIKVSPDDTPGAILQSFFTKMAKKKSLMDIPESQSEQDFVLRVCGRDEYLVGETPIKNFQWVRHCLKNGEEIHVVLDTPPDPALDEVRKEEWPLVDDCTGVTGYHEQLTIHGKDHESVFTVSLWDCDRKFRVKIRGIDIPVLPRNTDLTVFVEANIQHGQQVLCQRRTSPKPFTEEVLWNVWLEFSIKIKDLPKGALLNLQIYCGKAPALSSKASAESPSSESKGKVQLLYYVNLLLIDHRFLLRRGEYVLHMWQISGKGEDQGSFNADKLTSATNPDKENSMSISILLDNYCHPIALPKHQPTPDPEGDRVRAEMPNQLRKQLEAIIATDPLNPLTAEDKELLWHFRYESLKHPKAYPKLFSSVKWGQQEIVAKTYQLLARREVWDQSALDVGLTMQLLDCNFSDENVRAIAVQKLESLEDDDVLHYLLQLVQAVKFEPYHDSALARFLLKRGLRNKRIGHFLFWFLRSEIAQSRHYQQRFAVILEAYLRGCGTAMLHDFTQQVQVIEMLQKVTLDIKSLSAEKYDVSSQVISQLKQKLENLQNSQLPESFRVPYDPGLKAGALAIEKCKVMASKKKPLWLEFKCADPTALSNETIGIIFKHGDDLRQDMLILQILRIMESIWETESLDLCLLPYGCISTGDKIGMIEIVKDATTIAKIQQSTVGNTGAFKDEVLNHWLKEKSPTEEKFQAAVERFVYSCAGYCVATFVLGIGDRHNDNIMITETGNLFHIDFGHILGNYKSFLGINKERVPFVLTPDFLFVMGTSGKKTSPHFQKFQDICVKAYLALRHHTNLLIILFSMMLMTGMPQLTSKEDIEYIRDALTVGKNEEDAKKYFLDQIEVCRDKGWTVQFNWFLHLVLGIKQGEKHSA
Assay: HTRF assay, p120γ
Format: biochemical
Settings: PI3Kγ; read-out: PI3Kγ HTRF IC50 Inhibition Designation
Source text: The protocol below describes an end-point, competition-binding HTRF assay used to measure inherent potency of test compounds against active p110α/p85α, p110β/p85α, p120γ enzymes. The mechanics of the assay platform are best described by the vendor (Millipore, Billerica, Mass.) on their website at the following URL: http://www.millipore.com/coa/tech1/74jt4z.
Briefly, Stop solution (Stop A, #33-007 and Stop B, #33-009; 3:1 ratio) and Detection Mix (DMC, #33-015 with DMA, #33-011 and DMB, #33-013; 18:1:1 ratio) were prepared as recommended by the manufacturer ˜2 hrs prior to use. Additionally, 1× reaction buffer (4× buffer stock #33-003), a 1.4× stock of enzyme from BPS Bioscience (San Diego, Ca) or Millipore (Billerica, Mass.) with di-C8-PIP2 lipid substrate (#33-005), and a 4×ATP solution (#A7699) Sigma/Aldrich (St. Louis, Mo.) were prepared in 1×reaction buffer. 15 μL of enzyme and lipid substrate mix were pre-incubated in a Corning (#3573) 384-well, black, non-treated microtiter plate (Corning, N.Y.) for 30 min at 25° C. with a 0.5 μL volume of 50% DMSO and serially diluted compounds prepared in 50%-75% DMSO. Lipid kinase reactions were started with the addition of 5 μL of ATP solution, mixed for 15 sec on a rotary plate shaker and incubated for 15-30 minutes at 25° C. Next, reactions were stopped with a 5 μL addition of Stop solution followed by a 5 μL volume of Detection Mix. Stopped reactions were equilibrated for 1 and 18 hrs at room temperature and then read in a Synergy4 plate reader from BioTek (Winooski, Vt.) at λex330-80/λem620-35 and λem665-7.5. At the conclusion of each assay, the HTRF ratio from fluorescence emission values for each well was calculated and % Inhibition determined from averaged controls wells. % Inhibition values for each compound re then plotted against inhibitor concentration to estimate IC50 from log [Inhibitor] vs Response, Variable Slope model in GraphPad Prism from GraphPad Software (San Diego, Calif.).
Reagents Used in Optimized Protocol: • [p120γ]=1-4 nM, [ATP]=50 μM, [di-C8-PIP2]=10 μM • (40625; BPS Bioscience)

SMILES | IC50 [µM]
C=CC(=O)N(C)Cc1cc2nc(-c3cccc(O)c3)nc(N3CCOCC3)c2s1 [XXII-5, N-((2-(3-hydroxyphenyl)-4-morpholinothieno[3,2-d]pyrimidin-6-yl)methyl)-N-methylacrylamide] | 0.1 to 1

Same assay, conditions: p120γ; read-out: Reference Inhibitor IC50

SMILES | IC50 [µM]
Cc1ccc([N+](=O)[O-])cc1S(=O)(=O)N(C)/N=C/c1cnc2ccc(Br)cn12 [PIK75, reference compound] | 0.055

Biological target: T3, HCV NS3/4A 1b protease enzyme (wild type) (Hepatitis C virus genotype 1b, UniProt P26663)
T3 construct: 10× stocks of NS3/4A protease enzyme from Bioenza (Mountain View, Calif.); purchased Bioenza
T3 sequence (P26663 1658-1711): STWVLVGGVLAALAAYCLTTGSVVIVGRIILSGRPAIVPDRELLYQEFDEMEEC
T3 sequence (P26663 1027-1657): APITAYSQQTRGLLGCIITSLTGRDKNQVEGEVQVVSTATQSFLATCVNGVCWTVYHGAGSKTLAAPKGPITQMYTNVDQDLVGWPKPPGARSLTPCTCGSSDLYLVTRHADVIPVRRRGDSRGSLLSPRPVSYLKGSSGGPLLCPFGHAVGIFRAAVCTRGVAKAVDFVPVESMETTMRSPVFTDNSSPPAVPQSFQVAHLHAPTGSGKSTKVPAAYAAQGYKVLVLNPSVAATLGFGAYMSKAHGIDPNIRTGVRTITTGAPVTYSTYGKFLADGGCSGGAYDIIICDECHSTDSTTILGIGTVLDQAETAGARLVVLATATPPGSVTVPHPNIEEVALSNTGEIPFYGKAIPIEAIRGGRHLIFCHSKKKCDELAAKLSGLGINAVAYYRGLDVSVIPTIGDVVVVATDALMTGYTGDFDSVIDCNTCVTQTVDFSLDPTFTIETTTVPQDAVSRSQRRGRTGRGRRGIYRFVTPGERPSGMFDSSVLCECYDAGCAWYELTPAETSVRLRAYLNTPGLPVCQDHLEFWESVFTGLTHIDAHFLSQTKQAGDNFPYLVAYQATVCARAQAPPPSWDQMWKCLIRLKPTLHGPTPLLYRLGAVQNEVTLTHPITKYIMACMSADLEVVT
Assay: HCV protease FRET assay (IC50_APP), wild type NS3/4A 1b
Format: biochemical
Settings: not given
Protocol: HCV Protease FRET Assay for WT and Mutated NS3/4A 1b Enzymes (IC50_APP).
The following protocol was used to generate “apparent” IC50 (IC50_APP) values as depicted in Table 6, below. Without wishing to be bound by any particular theory, it is believed that IC50_APP, contrasted with IC50 values, may provide a more useful indication of time-dependent inhibition, and are thus more representative of binding affinity. […] 5 μL of each enzyme were added to Corning (#3575) 384-well, black, microtiter plates (Corning, N.Y.) after spotting a 0.5 μL volume of 50% DMSO and serially diluted compounds prepared in 50% DMSO. Protease reactions were immediately started after enzyme addition with the addition of 45 μL of the FRET substrate and monitored for 60-90 minutes at λex485/λem520 in a Synergy plate reader from BioTek (Winooski, Vt.). At the conclusion of each assay, progress curves from each well were examined for linear reaction kinetics and fit statistics (R^2, 95% confidence intervals, absolute sum of squares). Initial velocity (0 minutes to 15+ minutes) from each reaction was determined from the slope of a plot of relative fluorescence units vs time (minutes) and then plotted against inhibitor concentration as a percent of the no inhibitor and no enzyme controls to estimate apparent IC50 from log [Inhibitor] vs Response. (Variable Slope model in GraphPad Prism from GraphPad Software (San Diego, Calif.).)

SMILES | IC50 [µM]
C=C[C@@H]1C[C@]1(NC(=O)[C@@H]1CC(OC(=O)N2Cc3cccc(F)c3C2)CN1C(=O)[C@H](CN(C)C(=O)[C@@H]1CCC(=O)O1)NC(=O)OC(C)(C)C)C(=O)NS(=O)(=O)C1CC1 (stereo partly drawn) [XVI-19, (5S)-1-((S)-2-(tert-butoxycarbonylamino)-3-((S)-N-methyl-5-oxotetrahydrofuran-2-carboxamido)propanoyl)-5-((1R,2S)-1-(cyclopropylsulfonylcarbamoyl)-2-vinylcyclopropylcarbamoyl)pyrrolidin-3-yl 4-fluoroisoindoline-2-carboxylate] | 0.001 to 0.01
